Laboratory results taken from patent US9238039B2, “Pyrazolo[1,5-A]pyrimidines for antiviral treatment” (Gilead Sciences, Inc., priority 2010, dated 2016).

System: RSV strain A2
Assay: RSV antiviral cytoprotection assay in Hep2 cells (96-well and 384-well format, Cell TiterGlo read-out)
Format: cell-based, Respiratory Syncytial Virus (RSV)
Details: human respiratory syncytial virus; for inhibition at 0.5 µM: HEp-2, 0.5 uM, RSV-induced cytopathic effect in Hep2 cells, calculated from fitted dose response curve, normalized to 0% and 100%; for EC50: HEp-2, RSV-induced cytopathic effects, Hep2 cells, class symbols

Row | Compound | inhibition at 0.5 µM [%] | EC50 [nM]
1 | Cc1cn2nc([C@@H]3CCCCN3C(=O)c3cc(C4(O)CCCC4)on3)cc2nc1N1CC[C@H](N)C1 [Compound 405] | 99 | 0.1 to 100
2 | CC(=O)Nc1ccc(Cl)cc1C(=O)N1CCCC[C@H]1c1cc2nc(N3CC(O)C3)c(C)cn2n1 [Compound 224] | 100 | 0.1 to 100
3 | COc1cc(F)ccc1C(=O)N1CCCC[C@H]1c1cc2nc(N3CC[C@H](N)C3)c(C)cn2n1 [Compound 330] | 68 | 101 to 1000
4 | C[C@@H]1CN(c2cc(N3CCC3)nc3cc([C@@H]4CCCCN4C(=O)c4cc(Cl)ccc4NS(C)(=O)=O)nn23)CCN1 [Compound 154] | 100 | 0.1 to 100
5 | Cc1cn2nc([C@@H]3CCCCN3C(=O)c3ccccc3F)cc2nc1N1CC[C@H](N)C1 [Compound 277] | 98 | 0.1 to 100
6 | CS(=O)(=O)Nc1ccc(Cl)cc1C(=O)N1CCCC[C@H]1c1cc2nc(N3CCCO3)cc(N3CCOCC3)n2n1 [Compound 70] | 99 | 0.1 to 100
7 | Cc1cn2nc([C@@H]3CCCCN3C(=O)c3cc(Cl)ccc3NS(C)(=O)=O)cc2nc1N1CCC(Oc2ccccc2)C1 (stereo partly drawn) [Compound 208] | 95 | 0.1 to 100
8 | Cc1cn2nc([C@@H]3CCCCN3C(=O)c3ccccc3OC(F)F)cc2nc1N1CC[C@H](N)C1 [Compound 379] | 100 | 0.1 to 100
9 | CN(C)CCN(C)c1cc(N2CCC2)nc2cc([C@@H]3CCCCN3C(=O)c3cc(Cl)ccc3NS(C)(=O)=O)nn12 [Compound 175] | 100 | 0.1 to 100
10 | Cc1ccn2c(F)c(C(=O)N3CCCC[C@H]3c3cc4nc(N5CC[C@H](N)C5)c(C)cn4n3)nc2c1 [Compound 403] | 100 | 0.1 to 100
11 | Cc1cn2nc([C@@H]3CCCCN3C(=O)c3ccc(-c4cccnc4)cc3)cc2nc1N1CC[C@H](N)C1 [Compound 408] | 59 | 101 to 1000
12 | Cc1cn2nc([C@@H]3CCCCN3C(=O)c3cc(C)n(C(F)F)n3)cc2nc1N1CC[C@H](N)C1 [Compound 355] | 96 | 0.1 to 100
13 | Cc1cc(C(=O)N2CCCC[C@H]2c2cc3nc(N4CC[C@H](N)C4)c(C)cn3n2)c(C(F)(F)F)o1 [Compound 399] | 100 | 0.1 to 100
14 | Cc1cn2nc([C@@H]3CCCCN3C(=O)c3cc(Cl)ccc3NS(C)(=O)=O)cc2nc1N1CCCN1 [Compound 140] | 100 | 0.1 to 100
15 | Cc1ccc(NS(C)(=O)=O)c(C(=O)N2Cc3ccccc3C[C@H]2c2cc3nc(C)c(C)cn3n2)c1 [Compound 35] | 96 | 0.1 to 100
16 | CS(=O)(=O)Nc1ccc(Cl)cc1C(=O)N1CCCCCC1c1cc2nc(N3CC(N)C3)cc(N3CCOCC3)n2n1 (stereo not drawn) [Compound 178] | 100 | 0.1 to 100
17 | Cc1cn2nc([C@@H]3CCCCN3C(=O)c3cccc(-n4cnnc4)n3)cc2nc1N1CC[C@H](N)C1 [Compound 389] | 98 | 0.1 to 100
18 | Cc1cn2nc([C@@H]3CCCCN3C(=O)c3csnn3)cc2nc1N1CC[C@H](N)C1 [Compound 271] | 97 | 0.1 to 100
19 | Cc1cn2nc([C@@H]3CCCCN3C(=O)c3ccc(Cl)c(Cl)c3)cc2nc1N1CC[C@H](N)C1 [Compound 392] | 95 | 0.1 to 100
20 | CS(=O)(=O)Nc1ccc(Cl)cc1C(=O)N1CCCC[C@H]1c1cc2nc(N3CCC3)cc(N3CC(N)C3)n2n1 [Compound 133] | 96 | 0.1 to 100
21 | Cc1cn2nc([C@@H]3CCCCN3C(=O)c3cc(Cl)ccc3NS(C)(=O)=O)cc2nc1NCCNCCO [Compound 235] | 99 | 0.1 to 100
22 | Cc1ccc(NS(C)(=O)=O)c(C(=O)N2CCCC[C@H]2c2cc3nc(C4CC4)cc(N4CCC4)n3n2)c1 [Compound 65] | 100 | 0.1 to 100
23 | Cc1cn2nc([C@@H]3CCCCN3C(=O)c3cc(CC(C)C)nn3C)cc2nc1N1CC[C@H](N)C1 [Compound 368] | 58 | 101 to 1000
24 | CS(=O)(=O)Nc1ccc(Cl)cc1C(=O)N1CCCC[C@H]1c1cc2nc(N3CCC3)ccn2n1 [Compound 43] | 100 | 0.1 to 100
25 | Cc1cn2nc([C@@H]3CCCCN3C(=O)c3cccnc3F)cc2nc1N1CC[C@H](N)C1 [Compound 282] | 100 | 0.1 to 100
26 | CS(=O)(=O)Nc1ccc(Br)cc1C(=O)N1CCCC[C@H]1c1cc2nc(N3CC(O)C3)cc(N3CCOCC3)n2n1 [Compound 80] | 100 | 0.1 to 100
27 | Cc1cn2nc([C@@H]3CCCCN3C(=O)c3cccc(C(C)C#N)c3)cc2nc1N1CC[C@H](N)C1 (stereo partly drawn) [Compound 351] | 100 | 0.1 to 100
